From patent US12358914B2, “Preparation method and use of pyrazole compound containing 1-(3,4-dimethoxyphenyl)-β-carboline unit” (NANTONG UNIVERSITY, priority 2020, dated 2025)

System: Human gastric cancer cell HGC-27
Assay: In-vitro anti-tumor activity test by MTT method
Type: cell-based
Conditions: HGC-27 cells, 24 hours incubation with compound, OD 570 nm
Method: Anti-Tumor Activity Test of Compounds
The in-vitro anti-tumor activity of the compounds was tested by tetramethylazoazole colorimetric (MTT) method. Human gastric cancer cell HGC-27 was used as a test cell. 5-fluorouracil (5-FU) was selected as the positive control drug. Human gastric cancer cell HGC-27 in the exponential growth phase was made into a cell suspension with 4×10^3 cells/mL, inoculated in a 96-well plate, and cultured in a CO2 incubator for 36 hours. The test solution (10 μL) of the compound to be tested was added into the test wells, with parallel wells being set for each concentration. The same amount of DMSO was used as a blank control. The plate was incubated in a CO2 incubator for 24 hours, then the supernatant was discarded, and 10 μL of 5% MTT was added to each well. Then the plate was incubated for 4 hours, and the supernatant was sucked and discarded. Subsequently, 100 μL of DMSO was added to each well, and the plate was shaken in a shaker for 20 minutes. The OD value was measured with a microplate reader at a wavelength of 570 nm, and the cell inhibition rate was calculated. Cell inhibition rate=(OD value of negative control group−OD value of tested substance group)/OD value of negative control group×100%. The IC50 value of each compound was calculated by the probability unit weighted regression method.

IC50 [µM]	SMILES
10.1	COc1ccc(-c2nc(C(=O)N/N=C/c3c(C)nn(C)c3Oc3ccc(Cl)cc3)cc3c2[nH]c2ccccc23)cc1OC [Ia]
7.03	COc1ccc(-c2nc(C(=O)N/N=C/c3c(C)nn(C)c3Oc3ccc(F)cc3)cc3c2[nH]c2ccccc23)cc1OC [Ic]
1.27	COc1ccc(-c2nc(C(=O)N/N=C/c3c(C)nn(C)c3Oc3ccc(F)cc3F)cc3c2[nH]c2ccccc23)cc1OC [Id]

Second part, the compound before the results:

SMILES	IC50 [µM]
O=c1[nH]cc(F)c(=O)[nH]1 [Compound 5-FU, 5-fluorouracil, reference compound]	34.1
COc1ccc(Oc2c(/C=N/NC(=O)c3cc4c([nH]c5ccccc54)c(-c4ccc(OC)c(OC)c4)n3)c(C)nn2C)cc1 [Ib]	1.89
